# From patent publication US9695159B2, “Process for preparation of canagliflozin” (Glenmark Pharmaceuticals Limited, priority 2014, dated 2017)
# Assay: Hygroscopic study: water content by KF and description after exposure to 25° C./60% RH and 25° C./90% RH
# Format: physicochemical
# Method: Method for Measuring the Water Content
# About 10 g canagliflozin was exposed to 25° C. and 60% relative humidity and 25° C. and 90% relative humidity conditions. About 300 mg of sample was withdrawn each time at the timely intervals of 1 hr, 2 hrs, 4 hrs, 8 hrs, 12 hrs, 24 hrs and 48 hrs from the conditions and tested for description and water content by KF. The water content was calculated by the following formula: […]
# Results of Hygroscopic Study for Canagliflozin Obtained as Per Example 16
structure (smiles),measurement,setting,value
"Cc1ccc([C@@H]2O[C@H](CO)[C@@H](O)[C@H](O)[C@H]2O)cc1Cc1ccc(-c2ccc(F)cc2)s1 [amorphous canagliflozin, 1(S)-1,5-anhydro-1-[3[[5-(4-fluorophenyl)-2-thienyl]methyl]-4-methylphenyl]-D-glucitol]",increase of moisture content,exposed for 48 hours to 25° C. and 60% relative humidity,≤ 0.4%
same,increase of moisture content,exposed for 48 hours to 25° C. and 90% relative humidity,≤ 0.4%
"Cc1ccc([C@@H]2O[C@H](CO)[C@@H](O)[C@H](O)[C@H]2O)cc1Cc1ccc(-c2ccc(F)cc2)s1 [Canagliflozin, 1(S)-1,5-anhydro-1-[3[[5-(4-fluorophenyl)-2-thienyl]methyl]-4-methylphenyl]-D-glucitol]",Description,"25° C./60% RH, 1 hr",Off white
same,Moisture content by KF (%),"25° C./60% RH, 1 hr",2.22%
same,Description,"25° C./60% RH, 2 hrs",Off white
same,Moisture content by KF (%),"25° C./60% RH, 2 hrs",2.29%
same,Description,"25° C./60% RH, 4 hrs",Off white
same,Moisture content by KF (%),"25° C./60% RH, 4 hrs",2.33%
same,Description,"25° C./60% RH, 8 hrs",Off white
same,Moisture content by KF (%),"25° C./60% RH, 8 hrs",2.35%
same,Description,"25° C./60% RH, 12 hrs",Off white
same,Moisture content by KF (%),"25° C./60% RH, 12 hrs",2.39%
same,Description,"25° C./60% RH, 24 hrs",Off white
same,Moisture content by KF (%),"25° C./60% RH, 24 hrs",2.42%
same,Description,"25° C./60% RH, 48 hrs",Off white
same,Moisture content by KF (%),"25° C./60% RH, 48 hrs",2.49%
same,Description,"25° C./60% RH, Initial",Off white
same,Moisture content by KF (%),"25° C./60% RH, Initial",2.19%
same,Description,"25° C./90% RH, 1 hr",Off white
same,Moisture content by KF (%),"25° C./90% RH, 1 hr",2.36%
same,Description,"25° C./90% RH, 2 hrs",Off white
same,Moisture content by KF (%),"25° C./90% RH, 2 hrs",2.48%
same,Description,"25° C./90% RH, 4 hrs",Off white
same,Moisture content by KF (%),"25° C./90% RH, 4 hrs",2.52%
same,Description,"25° C./90% RH, 8 hrs",Off white
same,Moisture content by KF (%),"25° C./90% RH, 8 hrs",2.69%
same,Description,"25° C./90% RH, 12 hrs",Off white
same,Moisture content by KF (%),"25° C./90% RH, 12 hrs",2.87%
same,Description,"25° C./90% RH, 24 hrs",Off white
same,Moisture content by KF (%),"25° C./90% RH, 24 hrs",3.17%
same,Description,"25° C./90% RH, 48 hrs",Off white
same,Moisture content by KF (%),"25° C./90% RH, 48 hrs",3.48%
same,Description,"25° C./90% RH, Initial",Off white
same,Moisture content by KF (%),"25° C./90% RH, Initial",2.19%
